The record followed here is US5660613A, “Anaerobic/aerobic decontamination of DDT contaminated soil by repeated anaerobic/aerobic treatments” (Zeneca Corp., priority 1995, dated 1997).

A short description of series [1]: Large scale anaerobic/aerobic repeated sequence, biopile technique. The following applies: after 16 weeks of cycling, weekly air on/off, 22° C. to 28° C., initial DDT 728, DDD 87, DDE 50 ppm, 161280 min. An excerpt:
Eight tons of soil containing DDT (728 ppm), DDD (87 ppm) and DDE (50 ppm) is placed in an enclosed degradation zone box 8 foot by 8 foot by 8 feet. The soil is amended with 5% straw nutrient. Water is continuously dripped onto the surface of the soil to supersaturate, and the leachate is collected at the bottom and recycled at a rate of 20 to 100 L/tonne/day. Oxygenation is accomplished by passing air through a mechanical distribution system in the soil at the rate of 44 L/tonne/day, weekly alternating the air on and off. The temperatures of the soil during treatment range from 22° C. to 28° C. The redox potential level in the treatment zone stays below negative 200 mV when aeration is off and above positive 100 mV when aeration is on.
Sodium acetate nutrient is added as required to boost the COD to above 300 mg/L, and maintain population counts above 10^5 cfu/g, of anaerobic and aerobic bacteria; and surfactants (a mixture of "Triton" X-100 and "DAWN") is added as required to maintain surface tension below 70 dynes/cm measured in the leachate, which is recycled.

Series [2] in a line: Fate of radiolabelled DDT in the soil system with different surfactants, anaerobic/aerobic sequence (Table 2). As to conditions: anaerobic/aerobic cycles, 35° C.; for % DDD (% remaining after tests) / % DDE (% remaining after tests) / % Other (% remaining after tests): from radiolabelled DDT; for % DDT (% remaining after tests): 80640 min. The protocol: The soil to be remediated contains populations of >10^5 cfu/g of viable aerobic and anaerobic microbes capable of rendering DDT-type contaminants harmless and being viable under both anaerobic and aerobic conditions. This soil contains DDT (200 ppm), DDD (22 ppm) and DDE (18 ppm). Six twenty gram samples of soil are added to 50-ml polypropylene tubes with 25 ml of water containing 500 ppm each of cysteine and sulphite reducing agents. This creates a supersaturated anaerobic degradation zone immersed in water. To each slurry sample is added 500 ppm of different surfactants and 1 ppm of radiolabelled 4,4'-DDT ring UL C^14 in hexane.
The tubes are capped and incubated stationary for 2 weeks at 35° C. After 2 weeks the tubes are opened and the contents are each transferred to a foam-capped jar and aerated by rotary incubation (150 rpm), for a further 2 weeks at 35° C. The anaerobic/aerobic cycle is repeated 2 times.
The samples are then extracted and the fate of the radiolabelled DDT is determined by thin layer chromatography and autoradiography/densitometry. The experiments are replicated to obtain average results.

Series [3] in a line: Fate of radiolabelled DDT in the soil system, aerobic / anaerobic / anaerobic then aerobic incubation (Table 1). As to conditions: for % DDD (% remaining after tests) / % DDE (% remaining after tests) / % Other (% remaining after tests): from radiolabelled DDT; for % DDT (% remaining after tests): Triton X-100 500 ppm, 80640 min. An excerpt: This example compares the repeated anaerobic/aerobic sequence treatment method of the present invention with single anaerobic treatment and single aerobic treatment in the degradation of DDT in a soil system.
The soil in this example contains populations of >10^5 cfu/g viable aerobic and anaerobic microbes capable of rendering DDT-type contaminants harmless and being viable under both anaerobic and aerobic conditions. This soil contains DDT (200 ppm), DDD (22 ppm) and DDE (18 ppm).
Six 20 g samples of soil are each mixed with 25 ml of water containing 500 ppm each of cysteine and sulphite reducing agents and 500 ppm of "Triton"-X-100. To these slurries are added 1 ppm of radiolabelled 4,4'-DDT-ring UL C^14 in hexane. Two 20 g samples are incubated anaerobically (in 50-ml polypropylene tubes at 35° C., stationary);two 20 g samples are incubated aerobically (in rotating jars with foam plugs at 35° C., 150 rpm); and two 20 g samples are incubated on a 2 week anaerobic/2 week aerobic cycle for a total of 8 weeks.
Redox potential is monitored. After the aerobic phase redox is greater than +100 mV and after the anaerobic incubation redox potential is less than -200 mV.
The incubation samples are extracted, and the fate of the radiolabelled DDT is determined by thin layer chromatography and autoradiography/densitometry. The experiments are repeated to obtain average results.

Series [4] in a line: Pilot scale anaerobic/aerobic cycling of DDT-contaminated soil (immersion), solvent extraction and GC ECD analysis. As to conditions: after 16 weeks; one month immersed/drained cycles; 22° C. to 28° C.; initial DDT 728, DDD 87, DDE 50 ppm; 161280 min. As to the method:
Three-quarters of a ton of soil that contains DDT (728 ppm), DDD (87 ppm) and DDE (50 ppm) is placed in an enclosed degradation zone box 8 foot by 8 foot by 18 inches. It is alternately immersed in water and drained on one month cycles. Sodium acetate nutrient (500 ppm) is added as required to maintain the COD above 300 mg/L, and a mixture of "Triton" X-100 and "DAWN" nonionic surfactants is added as required to maintain the surface tension in the leachate below 70 dynes/cm. The material is cultivated by hand weekly to aerate the degradation zone and render it aerobic during the drained phase. During the treatment, the temperature ranges from 22° C. to 28° C. The redox potential level in the treatment zone stays below negative 200 mV while immersed in water and above positive 100 mV while drained. While drained the water content of the soil is in the range of 40-100% WHC.
After 16 weeks 72% of the DDT, 31% of the DDD and 54% of the DDE is degraded, as measured by solvent extraction and GC ECD analysis.

The mark [5] stands for this setting: Aerobic, 35° C., 150 rpm, 8 weeks.
Where [6] appears, read: Anaerobic then Aerobic, 2 week/2 week cycle, total 8 weeks.
Setting [7] is: Anaerobic, 35° C., stationary, 8 weeks.

`Clc1ccc(C(c2ccc(Cl)cc2)C(Cl)Cl)cc1` [DDD, 1,1,dichloro-2,2-bis(p-chlorophenyl)ethane]: the “% degraded” value in series [1] is on record as 55%; in series [4] it was 31%. The “% DDD (% remaining after tests)” value in series [2] ("Dawn" 500 ppm) is 75%; in series [2] ("Triton" X-100 500 ppm), 40%; in series [2] (No Surfactant), 15%; in series [3] (setting [5]) it was 17%; in series [3] (setting [6]), 60%; in series [3] (setting [7]) it was 30%.
Consider `ClC(Cl)=C(c1ccc(Cl)cc1)c1ccc(Cl)cc1` [DDE, 2,2-bis(p-chlorophenyl)1,1-dichloroethylene], for which the “% degraded” value in series [1] and in series [4] was 54% each time. Also, the “% DDE (% remaining after tests)” value in series [2] ("Dawn" 500 ppm) is recorded as “trace”; in series [2] ("Triton" X-100 500 ppm) it was “trace”; in series [2] (No Surfactant) it was 0%; in series [3] (setting [5]) it was 2%; in series [3] (setting [6]), “trace”; in series [3] (setting [7]), 0%.
For `Clc1ccc(C(c2ccc(Cl)cc2)C(Cl)(Cl)Cl)cc1` [DDT, 1,1,1-trichloro-2,2-bis(p-chlorophenyl)ethane], the results for the “% degraded” value in series [1] and in series [4] were 53% and 72%, respectively. For the same compound, the “% DDT (% remaining after tests)” value worked out at 10% in series [2] ("Dawn" 500 ppm); 0% in series [2] ("Triton" X-100 500 ppm); 85% in series [2] (No Surfactant); 80% in series [3] (setting [5]); 10% in series [3] (setting [6]); 60% in series [3] (setting [7]). In addition, the “% Other (% remaining after tests)” value in series [2] ("Dawn" 500 ppm) amounted to 15%; in series [2] ("Triton" X-100 500 ppm), 60%; in series [2] (No Surfactant), 0%; in series [3] (setting [5]), 1%; in series [3] (setting [6]), 30%; in series [3] (setting [7]) it was 10%.
